We go through one substance from US20240398736A1, “Eyedrops for Treating Scleral Thinning and Screening Method for Therapeutic Agent of Scleral Thinning” (Tsubota Laboratory, Inc., priority 2020, published 2024).

For experiment [1], the system named is collagen 1A1 (COL1A1). To be noted: 2% 4-PBA eyedrop. The procedure: A protein (10 μg/well) of the sclera was separated by SDS-PAGE, transferred onto a PVDF membrane (Merck Millipore, MA, USA), blocked with Blocking One (Nacalai Tesque, Tokyo), and incubated together with anti-ATF6 (BioAcademia), phosphorylation-IRE1 (Ser724, Abcam, Cambridge, UL), IRE1, phosphorylation-eIF2α, eIF2α, and β-actin (Cell Signaling Technologies Japan, Tokyo, Japan) antibodies at 4° C. overnight. The resultant membrane was incubated with an appropriate HRP-bound secondary antibody, and the resultant was visualized with EzWestLumi plus (ATTA, Tokyo, Japan). SDS-PAGE was performed in a 10% acrylamide gel with a protein size marker (Magic Mark XP Western Protein Standard, ThermoFisher Scientific). The concentration measurement and analysis was performed using Image J software.
(§1) Quantitative real-time PCR was performed using StepOnePlus Realtime PCR system with PowerUp SYBR Green Master Mix (Applied Biosystems, CA, USA). Expression level was standardized using B-actin.
4-PBA was administered by eyedrop to a mouse myopia induction model to confirm its influence on collagen 1A1 (COL1A1) and the like corresponding to principal collagens for maintaining the shape of the eyeball. A specific test method was as follows.
PBS (Veh) or 2% 4-PBA was eye-dropped to a myopia-induced mouse, and collagen 1A1 in the sclera (n=7) was evaluated by Western blotting method, and expression of collagen-related mRNA was evaluated by quantitative PCR.

Experiment [2] relates to PERK pathway and ATF6 pathway. The procedure:
A solution of sodium phenylbutyrate in PBS (4-PBA; 200 mg/kg) or tauroursodeoxycholic acid (TUDCA; 100 mg/kg) was intraperitoneally injected (i.p.) every day during the myopia induction period.
as §1

sodium phenylbutyrate [4-PBA]: in experiment [1] (Western blotting), the “collagen 1A1 (COL1A1) protein in the sclera (reduction induced by myopia)” value was “can be cancelled”. Further, in experiment [1] (quantitative PCR), the “collagen 1A1 (COL1A1) mRNA in the sclera (reduction induced by myopia)” value is “can be cancelled”; the “mRNAs of Col4a3, Col8a2, Col11a2, and Col15a1 in the sclera (increase by myopia induction)” value was “the increase was cancelled”. In experiment [2] (4-PBA 200 mg/kg/day administered, quantitative PCR), the “UPR gene expression in the sclera (increase in myopia induced eyes)” value is “the increase is inhibited by 4-PBA”. Also, the “expression of genes disposed downstream of the PERK pathway and the ATF6 pathway” value in experiment [2] (eyedrop administration of 2% 4-PBA, FIG. 7) is “significantly inhibited”.
